Measurements taken from patent US20230111310A1, “CARBOXYLIC ACID DERIVATIVE-SUBSTITUTED IMINO ARYL COMPOUND, PREPARATION METHOD THEREFOR, HERBICIDAL COMPOSITION AND USE THEREOF” (Qingdao Kingagroot Chemical Compound Co., Ltd., priority 2020, published 2023).

What was measured:
Assay in all cases: Weeding effect in post-emergence stage
Assay type in all cases: in vivo
Details in all cases: Dose 15 g/ha; level of fresh weight growth control rate
Echinochloa crusgalli = tested on: Echinochloa crusgalli
Excerpt: The activity level criteria for plant damage (i.e., growth control rate) are as follows:
Monocotyledonous and dicotyledonous weed seeds (Descurainia sophia, Capsella bursa-pastoris, Abutilon theophrasti, Galium aparine, Stellaria media, Lithospermum arvense, rorippa indica, Alopecurus aequalis, Alopecurus japonicus, Eleusine indica, Beckmannia syzigachne, Sclerochloa dura, Conyza Canadensis, Phleum paniculatum, Veronica didyma Tenore, Bromus japonicus, Aegilops tauschii, Phalaris arundinacea, Amaranthus retroflexus, Chenopodiaceae, Commelina communis, Sonchus arvensis, Convolvulus arvensis, Cirsium setosum, Bidens tripartita L., Solanum nigrum, Acalypha australis, Digitaria sanguinalis, Echinochloa crusgalli, Setaria viridis, Setaria glauca, Leptochloa chinensis, Monochoria vaginalis, Sagittaria trifolia, Scirpus juncoides, Cyperus rotundus, Cyperus iria, Cyperus difformis, Fimbristylis, Portulaca oleracea, Xanthium sibiricum, Pharbitis nil, etc.) and major crop seeds (wheat, corn, rice, soybean, cotton, oilseed rape, millet, sorghum, potato, sesame, ricinus, etc.) were placed in plastic pots filled with soil, then covered with 0.5-2 cm of soil, allowed to grow in a good greenhouse environment. After 2 weeks of sowing, the test plants were treated in the 2-3 leaf stage. The tested compounds of the present invention were respectively dissolved in acetone, then added with Tween 80 and 1.5 liter/ha of emulsifiable concentrate of methyl oleate as synergist, diluted with a certain amount of water to obtain a solution with a certain concentration, and sprayed with a spray tower onto the plants. After the application, the plants were cultured for 3 weeks in the greenhouse, and then the experimental results of the weeding were counted. The doses of the used compounds were 500, 250, 125, 60, 30, 15, 7.5 g/ha, and the averages were obtained by repeating for three times.

Digitaria sanguinalis = tested on: Digitaria sanguinalis
Procedure, shortened: (§1)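 Weeds were treated post-emergence at 2-3 leaves with compound doses from 7.5 up to 500 g/ha, formulated in acetone–Tween 80 with methyl oleate synergist. Efficacy was assessed as growth control after 3 weeks.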

Setaria viridis = tested on: Setaria viridis
Procedure, shortened: as §1

Abutilon theophrasti = tested on: Abutilon theophrasti
Procedure, shortened: as §1

Alopecurus japonicus = tested on: Alopecurus japonicus
Procedure, shortened: as §1

Eleusine indica = tested on: Eleusine indica
Procedure, shortened: as §1

Row | SMILES | Weeding effect in post-emergence stage, Echinochloa crusgalli (Echinochloa crusgalli) | Weeding effect in post-emergence stage, Digitaria sanguinalis (Digitaria sanguinalis) | Weeding effect in post-emergence stage, Setaria viridis (Setaria viridis) | Weeding effect in post-emergence stage, Abutilon theophrasti (Abutilon theophrasti) | Weeding effect in post-emergence stage, Alopecurus japonicus (Alopecurus japonicus) | Weeding effect in post-emergence stage, Eleusine indica (Eleusine indica)
1 | COC(=O)C(C)O/N=C/c1cc(-n2c(=O)n(C)c(=S)n(C)c2=S)c(F)cc1Cl (racemic) [Compound 124] | 5 (Level 5: growth control rate is above 85%) | 5 (Level 5: growth control rate is above 85%) | 5 (Level 5: growth control rate is above 85%) | 5 (Level 5: growth control rate is above 85%) | 4 (Level 4: growth control rate is greater than or equal to 60% and less than 85%) | 5 (Level 5: growth control rate is above 85%)
2 | CCOC(=O)C(C)O/N=C/c1cc(-n2c(=O)n(C)c(=S)n(C)c2=S)c(F)cc1Br (racemic) [Compound 161] | 5 (Level 5: growth control rate is above 85%) | 4 (Level 4: growth control rate is greater than or equal to 60% and less than 85%) | 5 (Level 5: growth control rate is above 85%) | 5 (Level 5: growth control rate is above 85%) | 4 (Level 4: growth control rate is greater than or equal to 60% and less than 85%) | 5 (Level 5: growth control rate is above 85%)
3 | COC(=O)C(C)O/N=C/c1cc(-n2c(=O)n(C)c(=O)n(C)c2=O)c(F)cc1Cl (racemic) [Compound 164] | 5 (Level 5: growth control rate is above 85%) | 5 (Level 5: growth control rate is above 85%) | 5 (Level 5: growth control rate is above 85%) | 5 (Level 5: growth control rate is above 85%) | 5 (Level 5: growth control rate is above 85%) | 5 (Level 5: growth control rate is above 85%)
4 | CCSC(=O)C(C)O/N=C/c1cc(-n2c(=O)n(C)c(=S)n(C)c2=O)c(F)cc1Cl (racemic) [Compound 168] | 5 (Level 5: growth control rate is above 85%) | 5 (Level 5: growth control rate is above 85%) | 5 (Level 5: growth control rate is above 85%) | 5 (Level 5: growth control rate is above 85%) | 5 (Level 5: growth control rate is above 85%) | 5 (Level 5: growth control rate is above 85%)
5 | COC(=O)CCNC(=O)C(C)O/N=C/c1cc(-n2c(=O)n(C)c(=S)n(C)c2=O)c(F)cc1Cl (racemic) [Compound 183] | 5 (Level 5: growth control rate is above 85%) | 5 (Level 5: growth control rate is above 85%) | 5 (Level 5: growth control rate is above 85%) | 5 (Level 5: growth control rate is above 85%) | 5 (Level 5: growth control rate is above 85%) | 5 (Level 5: growth control rate is above 85%)
6 | CC(O/N=C/c1cc(-n2c(=O)cc(C(F)(F)F)n(C)c2=O)c(F)cc1Cl)C(=O)O (racemic) [Compound 193] | 5 (Level 5: growth control rate is above 85%) | 5 (Level 5: growth control rate is above 85%) | 5 (Level 5: growth control rate is above 85%) | 5 (Level 5: growth control rate is above 85%) | 5 (Level 5: growth control rate is above 85%) | 5 (Level 5: growth control rate is above 85%)
7 | CCOC(=O)C(C)O/N=C/c1cc(-n2c(=O)cc(C(F)(F)F)n(C)c2=O)c(F)cc1Cl (racemic) [Compound 196] | 5 (Level 5: growth control rate is above 85%) | 5 (Level 5: growth control rate is above 85%) | 5 (Level 5: growth control rate is above 85%) | 5 (Level 5: growth control rate is above 85%) | 5 (Level 5: growth control rate is above 85%) | 5 (Level 5: growth control rate is above 85%)
8 | CCCOC(=O)C(C)O/N=C/c1cc(-n2c(=O)cc(C(F)(F)F)n(C)c2=O)c(F)cc1Cl (racemic) [Compound 198] | 5 (Level 5: growth control rate is above 85%) | 5 (Level 5: growth control rate is above 85%) | 5 (Level 5: growth control rate is above 85%) | 5 (Level 5: growth control rate is above 85%) | 5 (Level 5: growth control rate is above 85%) | 5 (Level 5: growth control rate is above 85%)
9 | CC(C)OC(=O)C(C)O/N=C/c1cc(-n2c(=O)cc(C(F)(F)F)n(C)c2=O)c(F)cc1Cl (racemic) [Compound 199] | 5 (Level 5: growth control rate is above 85%) | 5 (Level 5: growth control rate is above 85%) | 5 (Level 5: growth control rate is above 85%) | 5 (Level 5: growth control rate is above 85%) | 5 (Level 5: growth control rate is above 85%) | 5 (Level 5: growth control rate is above 85%)
10 | CCCCOC(=O)C(C)O/N=C/c1cc(-n2c(=O)cc(C(F)(F)F)n(C)c2=O)c(F)cc1Cl (racemic) [Compound 200] | 5 (Level 5: growth control rate is above 85%) | 5 (Level 5: growth control rate is above 85%) | 5 (Level 5: growth control rate is above 85%) | 5 (Level 5: growth control rate is above 85%) | 5 (Level 5: growth control rate is above 85%) | 5 (Level 5: growth control rate is above 85%)
11 | CC(C)COC(=O)C(C)O/N=C/c1cc(-n2c(=O)cc(C(F)(F)F)n(C)c2=O)c(F)cc1Cl (racemic) [Compound 201] | 5 (Level 5: growth control rate is above 85%) | 5 (Level 5: growth control rate is above 85%) | 5 (Level 5: growth control rate is above 85%) | 5 (Level 5: growth control rate is above 85%) | 5 (Level 5: growth control rate is above 85%) | 5 (Level 5: growth control rate is above 85%)
12 | CC(O/N=C/c1cc(-n2c(=O)cc(C(F)(F)F)n(C)c2=O)c(F)cc1Cl)C(=O)OC(C)(C)C (racemic) [Compound 202] | 5 (Level 5: growth control rate is above 85%) | 5 (Level 5: growth control rate is above 85%) | 5 (Level 5: growth control rate is above 85%) | 5 (Level 5: growth control rate is above 85%) | 5 (Level 5: growth control rate is above 85%) | 5 (Level 5: growth control rate is above 85%)
13 | CCCCCOC(=O)C(C)O/N=C/c1cc(-n2c(=O)cc(C(F)(F)F)n(C)c2=O)c(F)cc1Cl (racemic) [Compound 203] | 5 (Level 5: growth control rate is above 85%) | 5 (Level 5: growth control rate is above 85%) | 5 (Level 5: growth control rate is above 85%) | 5 (Level 5: growth control rate is above 85%) | 5 (Level 5: growth control rate is above 85%) | 5 (Level 5: growth control rate is above 85%)
